Data published in patent US7906551B2 (Rottapharm S.p.A., priority 2006, dated 2011).
Where two headings read alike, the source gives them in different places.

Key:
[1] = target: T1, COX-2 (Mus musculus, UniProt Q05769); assay: Assessment of COX-2 activity in LPS-stimulated J774 cells (PGE2 radioimmunoassay); assay type: cell-based, murine; conditions: for IC50: read-out: COX-2 IC50
T1 construct: lipopolysaccharide (LPS, 10 μg/mL) to induce COX-2; endogenous in cells; host or cells: J774 murine monocyte/macrophage cell line, LPS-stimulated
T1 sequence (Q05769 18-604): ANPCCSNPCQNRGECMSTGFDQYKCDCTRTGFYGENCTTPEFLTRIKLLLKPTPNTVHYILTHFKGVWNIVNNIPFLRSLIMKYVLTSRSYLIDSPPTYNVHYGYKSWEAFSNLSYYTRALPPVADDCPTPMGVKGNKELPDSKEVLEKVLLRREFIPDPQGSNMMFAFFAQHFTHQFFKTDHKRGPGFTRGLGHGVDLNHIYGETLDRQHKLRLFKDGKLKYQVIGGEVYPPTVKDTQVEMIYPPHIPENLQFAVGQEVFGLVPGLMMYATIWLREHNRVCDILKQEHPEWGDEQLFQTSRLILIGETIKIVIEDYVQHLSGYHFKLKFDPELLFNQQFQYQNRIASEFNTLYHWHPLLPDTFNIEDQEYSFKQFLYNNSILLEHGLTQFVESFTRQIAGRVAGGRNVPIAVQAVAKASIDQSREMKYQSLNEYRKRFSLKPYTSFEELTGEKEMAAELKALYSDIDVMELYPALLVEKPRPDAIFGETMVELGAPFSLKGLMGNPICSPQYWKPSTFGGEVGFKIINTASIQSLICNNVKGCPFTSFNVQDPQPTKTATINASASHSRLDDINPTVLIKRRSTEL
Procedure: Cells were stimulated for 24 h with E. coli lipopolysaccharide (LPS, 10 μg/mL) to induce COX-2, in the absence or presence of test compounds, at the concentrations previously reported. The supernatants were collected for the measurement of PGE2 by radioimmunoassay.
(§1) Analysis. Throughout the time the experiments lasted, triplicate wells were used for the various conditions of treatment. Results are expressed as the mean, for 3 experiments, of the % inhibition of PGE2 production by test compounds with respect to control samples. Data fit was obtained using the sigmoidal dose-response equation (variable slope). The IC50 were calculated by GraphPad Instat program (GraphPad software).

[2] = tested on: rat model of hyperalgesia induced by carragenine; assay: Paw pressure test, hyperalgesia induced by carragenine; assay type: in vivo; conditions: 20 mg/Kg
Procedure: (§2) Male Swiss albino mice (23-25 g) and Sprague Dawley or Wistar rats (150-200 g) were used. The animals were fed a standard laboratory diet and tap water ad libitum and kept at 23±1° C. with a 12 h light/dark cycle, light on at 7 a.m.
The nociceptive threshold in the rat was determined with an analgesimeter, according to the method described by Leighton et al, G. E.; Br. J. Pharmacol. 1988, 93, 553-560. Threshold pressure was measured before and 30, 60 and 120 min after treatment. An arbitrary cut-off value of 250 g was adopted. In order to induce an inflammatory process in the rat paw carrageenan (0.1 ml, 1%) was administered i.p. 4 h before test.

[3] = tested on: rat model of edema induced by carragenine; assay: Carrageenan-induced paw edema; assay type: in vivo; conditions: 1 h, 20 mg/Kg, read-out: Edema inhibition 60 min, MPE
Procedure: as §2
Rats paw volumes were measured using a plethysmometer. Rats received the investigated compounds 4 hours after a 0.1-ml injection of 1.0% carrageenan in the right hind paw. Five hours after the injection of carrageenan (i.e. 1 hour after the administration of the investigated compound), the paw volume of the right hind paw was measured and compared with saline/carrageenan-treated controls. Results are reported as maximum percent effect (MPE), see below for detailed explanation.

[4] = target: T2, COX-1 (Mus musculus, UniProt P22437); assay: Assessment of COX-1 activity in J774 cells (arachidonic acid, PGE2 radioimmunoassay); assay type: cell-based, murine
T2 construct: endogenous in cells; host or cells: J774 murine monocyte/macrophage cell line
T2 sequence (P22437 27-602): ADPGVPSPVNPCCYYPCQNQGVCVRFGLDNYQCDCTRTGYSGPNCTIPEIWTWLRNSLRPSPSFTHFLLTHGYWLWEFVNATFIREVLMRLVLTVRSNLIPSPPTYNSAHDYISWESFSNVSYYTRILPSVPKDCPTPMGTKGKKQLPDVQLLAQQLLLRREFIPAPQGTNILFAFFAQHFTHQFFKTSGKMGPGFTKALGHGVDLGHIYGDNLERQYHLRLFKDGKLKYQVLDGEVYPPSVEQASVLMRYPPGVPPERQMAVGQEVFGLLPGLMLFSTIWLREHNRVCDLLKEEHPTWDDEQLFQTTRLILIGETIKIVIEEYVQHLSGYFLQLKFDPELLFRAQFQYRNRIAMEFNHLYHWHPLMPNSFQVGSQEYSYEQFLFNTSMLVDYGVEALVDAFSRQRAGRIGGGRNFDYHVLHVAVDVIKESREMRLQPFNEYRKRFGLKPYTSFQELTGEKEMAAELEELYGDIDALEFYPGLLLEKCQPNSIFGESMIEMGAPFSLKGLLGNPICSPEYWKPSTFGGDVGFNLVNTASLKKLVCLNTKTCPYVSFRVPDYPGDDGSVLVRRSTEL
Procedure: Stock solutions of the reference standard or of the test compounds were prepared in dimethyl sulphoxide, and an equivalent amount of dimethyl sulphoxide was included in control samples. At the end of the incubation the supernatants were collected for the measurement of PGE2 by radioimmunoassay.
as §1

[5] = 0.5 h, Table 10, 30 min, read-out: Analgesia 30 min MPE
[6] = 1 h, Table 10, 60 min, read-out: Analgesia 60 min MPE

Question: With `CCOC(=O)C(O)c1cc(-c2ccc(S(C)(=O)=O)cc2)n(-c2cccc(F)c2)c1C` (racemic) [Example 9, Ethyl[2-hydroxy-2-[1-(3-fluoro)phenyl-2-methyl-5-(4-methylsulphonyl)phenyl-1H-pyrrol-3-yl]]acetate] as the compound, how does the “COX-1/COX-2 Selectivity Index (IC50 ratio)” value ([1]; Table 6, Formula Ib) read?
Answer: >310

Question: What about the IC50 ([1]; Table 6, Formula Ib) of the same compound?
Answer: 320 nM

Question: And the inhibition in vivo at 20 mg/kg ([2]; 0.5 h, Table 7, 30 min, read-out: Analgesia 30 min MPE)?
Answer: 80%

Question: What about the inhibition in vivo at 20 mg/kg ([2]; 1 h, Table 7, 60 min, read-out: Analgesia 60 min MPE) of the same compound?
Answer: 40%

Question: And the inhibition in vivo at 20 mg/kg ([3]; Table 7, 60 min)?
Answer: 40%

Question: How did the “COX-1/COX-2 Selectivity Index (IC50 ratio)” value ([1]; Table 6, Formula Ib) turn out when `CCOC(=O)C(O)c1cc(-c2ccc(S(C)(=O)=O)cc2)n(-c2cccc(F)c2)c1C` (single isomer, unassigned; (+)) [Example 9a, (+)-Ethyl[2-hydroxy-2-[1-(3-fluoro)phenyl-2-methyl-5-(4-methylsulphonyl)phenyl-1H-pyrrol-3-yl]]acetate] was run?
Answer: >1300

Question: Which “COX-1/COX-2 Selectivity Index (IC50 ratio)” value ([1]; Table 6, Formula Ib) does the source give for `CCOC(=O)C(O)c1cc(-c2ccc(S(C)(=O)=O)cc2)n(-c2cccc(F)c2)c1C` (single isomer, unassigned; (-)) [Example 9b, (−)-Ethyl[2-hydroxy-2-[1-(3-fluoro)phenyl-2-methyl-5-(4-methylsulphonyl)phenyl-1H-pyrrol-3-yl]]acetate] here?
Answer: >650

Question: What does the source list for `CCNC(=O)Cc1cc(-c2ccc(S(C)(=O)=O)cc2)n(-c2ccccc2)c1C` [Example 14, N-Ethyl-[2-methyl-5-(4-methylsulphonyl)phenyl-1-phenyl-1H-pyrrol-3-yl]acetamide]?
Answer: IC50 ([4]; Table 8, Formula I-c): > 100000 nM; IC50 ([1]; Table 8, Formula I-c): 350 nM

Question: What does the source list for `Cc1c(CC(=O)N(C)Cc2ccccc2)cc(-c2ccc(S(C)(=O)=O)cc2)n1-c1ccccc1` [Example 16, N-Benzyl-N-methyl-[2-methyl-5-(4-methylsulphonyl)phenyl-1-phenyl-1H-pyrrol-3-yl]acetamide]?
Answer: IC50 ([4]; Table 8, Formula I-c): > 100000 nM; IC50 ([1]; Table 8, Formula I-c): 170 nM

Question: Which results are given for `CNC(=O)Cc1cc(-c2ccc(S(C)(=O)=O)cc2)n(-c2ccc(C(F)(F)F)cc2)c1C` [Example 17, N-Methyl-[2-methyl-5-(4-methylsulphonyl)phenyl-1-(4-trifluoromethyl)phenyl-1H-pyrrol-3-yl]acetamide]?
Answer: IC50 ([4]; Table 8, Formula I-c): > 100000 nM; IC50 ([1]; Table 8, Formula I-c): 90 nM

Question: How did the IC50 ([4]; Table 8, Formula I-c) turn out when `CCNC(=O)Cc1cc(-c2ccc(S(C)(=O)=O)cc2)n(-c2ccc(C(F)(F)F)cc2)c1C` [Example 18, N-Ethyl-[2-methyl-5-(4-methylsulphonyl)phenyl-1-(4-trifluoromethyl)phenyl-1H-pyrrol-3-yl]acetamide] was run?
Answer: > 100000 nM

Question: And the IC50 ([1]; Table 8, Formula I-c)?
Answer: 190 nM

Question: `Cc1c(CC(=O)N(C)Cc2ccccc2)cc(-c2ccc(S(C)(=O)=O)cc2)n1-c1ccc(C(F)(F)F)cc1` [Example 19, N-Benzyl-N-methyl-[2-methyl-5-(4-methylsulphonyl)phenyl-1-(4-trifluoromethyl)phenyl-1H-pyrrol-3-yl]acetamide] was tested. Which IC50 ([4]; Table 8, Formula I-c) did it give?
Answer: > 100000 nM

Question: What about the IC50 ([1]; Table 8, Formula I-c) of the same compound?
Answer: 470 nM

Question: Which results are given for `CCOCCc1cc(-c2ccc(S(C)(=O)=O)cc2)n(-c2ccccc2)c1C` [Example 21, [3-(2-Ethoxyethyl)-2-methyl-5-(4-methylsulphonyl)phenyl-1-phenyl]-1H-pyrrole]?
Answer: inhibition in vivo at 20 mg/kg [2, 5]: 96%; inhibition in vivo at 20 mg/kg [2, 6]: 72%; inhibition in vivo at 20 mg/kg ([3]; Table 10, 60 min): 45%

Question: Which inhibition in vivo at 20 mg/kg [2, 5] does the source give for `CCCOCCc1cc(-c2ccc(S(C)(=O)=O)cc2)n(-c2ccccc2)c1C` [Example 22, [2-Methyl-5-(4-methylsulphonyl)phenyl-1-phenyl-3-(2-n-propyloxyethyl)]-1H-pyrrole] here?
Answer: 88%

Question: And the inhibition in vivo at 20 mg/kg [2, 6]?
Answer: 94%

Question: What about the inhibition in vivo at 20 mg/kg ([3]; Table 10, 60 min) of the same compound?
Answer: 43%

Question: What does the source list for `COCCc1cc(-c2ccc(S(C)(=O)=O)cc2)n(-c2ccc(F)cc2)c1C` [Example 23, [1-(4-Fluoro)phenyl-2-methyl-5-(4-methylsulphonyl)phenyl-3-(2-methoxyethyl)]-1H-pyrrole]?
Answer: IC50 ([4]; Table 9, Formula I-d): > 100000 nM; IC50 ([1]; Table 9, Formula I-d): 18 nM

Question: Which results are given for `CCCOCCc1cc(-c2ccc(S(C)(=O)=O)cc2)n(-c2ccc(F)cc2)c1C` [Example 25, [1-(4-Fluoro)phenyl-2-methyl-5-(4-methylsulphonyl)phenyl-3-(2-n-propyloxyethyl)]-1H-pyrrole]?
Answer: inhibition in vivo at 20 mg/kg [2, 5]: 53%; inhibition in vivo at 20 mg/kg [2, 6]: 70%; inhibition in vivo at 20 mg/kg ([3]; Table 10, 60 min): 41%

Question: For `COCCc1cc(-c2ccc(S(C)(=O)=O)cc2)n(-c2ccc(C(F)(F)F)cc2)c1C` [Example 26, [2-Methyl-5-(4-methylsulphonyl)phenyl-3-(2-methoxyethyl)-1-(4-trifluoromethyl)phenyl]-1H-pyrrole], which IC50 ([4]; Table 9, Formula I-d) is on record?
Answer: > 100000 nM

Question: And the IC50 ([1]; Table 9, Formula I-d)?
Answer: 49 nM

Question: Which results are given for `CCC(=O)OCCc1cc(-c2ccc(S(C)(=O)=O)cc2)n(-c2ccc(F)cc2)c1C` [Example 29, 2-(1-(4-Fluorophenyl)-2-methyl-5-(4-methylsulphonyl)phenyl-1H-pyrrol-3-yl)ethyl propionate]?
Answer: IC50 ([4]; Table 11, Formula I-e): > 100000 nM; COX-2 % of inhibition at 1.10^−5 M [1]: 97%

Question: Which IC50 ([4]; Table 11, Formula I-e) does the source give for `CCCC(=O)OCCc1cc(-c2ccc(S(C)(=O)=O)cc2)n(-c2ccc(F)cc2)c1C` [Example 30, 2-(1-(4-fluorophenyl)-2-methyl-5-(4-methylsulphonyl)phenyl-1H-pyrrol-3-yl)ethyl butanoate] here?
Answer: > 100000 nM

Question: And the “COX-2 % of inhibition at 1.10^−5 M” value [1]?
Answer: 86%

Question: Which results are given for `Cc1c(CCOC(=O)c2ccccc2)cc(-c2ccc(S(C)(=O)=O)cc2)n1-c1ccc(F)cc1` [Example 31, 2-(1-(4-fluorophenyl)-2-methyl-5-(4-methylsulphonyl)phenyl-1H-pyrrol-3-yl)ethyl benzoate]?
Answer: IC50 ([4]; Table 11, Formula I-e): > 100000 nM; COX-2 % of inhibition at 1.10^−5 M [1]: 76%

Question: How did the IC50 ([4]; Table 11, Formula I-e) turn out when `Cc1c(CCOC(=O)c2ccccc2F)cc(-c2ccc(S(C)(=O)=O)cc2)n1-c1ccc(F)cc1` [Example 32, 2-(1-(4-fluorophenyl)-2-methyl-5-(4-methylsulphonyl)phenyl-1H-pyrrol-3-yl)ethyl 2-fluorobenzoate] was run?
Answer: > 100000 nM

Question: What about the “COX-2 % of inhibition at 1.10^−5 M” value [1] of the same compound?
Answer: 64%

Question: What does the source list for `Cc1c(CCOC(=O)c2ccc(F)cc2)cc(-c2ccc(S(C)(=O)=O)cc2)n1-c1ccc(F)cc1` [Example 33, 2-(1-(4-fluorophenyl)-2-methyl-5-(4-methylsulphonyl)phenyl-1H-pyrrol-3-yl)ethyl 4-fluorobenzoate]?
Answer: IC50 ([4]; Table 11, Formula I-e): > 100000 nM; COX-2 % of inhibition at 1.10^−5 M [1]: 69%

Question: What does the source list for `Cc1c(CCOC(=O)c2cccs2)cc(-c2ccc(S(C)(=O)=O)cc2)n1-c1ccc(F)cc1` [Example 34, 2-(1-(4-fluorophenyl)-2-methyl-5-(4-methylsulphonyl)phenyl-1H-pyrrol-3-yl)ethyl 2-tiophencarboxylate]?
Answer: IC50 ([4]; Table 11, Formula I-e): > 100000 nM; COX-2 % of inhibition at 1.10^−5 M [1]: 69%
